According to patent US9956199B2, “Chromane-like cyclic prenylflavonoids for the medical intervention in neurological disorders” (priority 2011, dated 2018):
Entries after “also recorded” stand apart in the source; their conditions may differ.

Columns and labels:
Neuro-2a cells = test: neurite length in Neuro2a cells (GAP-43 staining); format: cell-based, mouse; settings: 10 μM, 2 days, compared to control and RA/VPA
Method: For more precise analysis of neurite length Neuro2a cells were selected and stimulated for 2 days with RA/VPA as positive control and ENDFs in MEM+10% FCS. Immunocytochemical analysis was performed using GAP43 antibody which is known as a strong neuronal plasticity marker.
Neuro2a cells were grown in MEM with Earle's Salts (PAA, Pasching, Austria) containing 2 mM L-glutamine, 100 μg/ml Penicillin/Streptomycin (PAN Biotech GmbH, Aidenbach, Germany), 100 mM sodium pyruvate (Sigma-Aldrich, Taufkirchen, Germany) and 10% FCS (Lonza, Wuppertal, Germany).
The cells were passaged with 6 ml trypsin 0.5 mg/ml+EDTA 0.22 mg/ml (PAA, Pasching, Austria) two times per week. For analysis of neurite length Neuro2a cells were seeded on coverslips in a 24 well plate coated with Poly-L-ornithine and Laminin in a differentiation media MEM with Earle's Salts (PAA, Pasching, Austria) containing 2 mM L-glutamine, 100 μg/ml Penicillin/Streptomycin (PAN Biotech GmbH, Aidenbach, Germany), 100 mM sodium pyruvate (Sigma-Aldrich, Taufkirchen, Germany) and 1% FCS (Lonza, Wuppertal, Germany) and treated for 2 days with retinoic acid plus valproic acid and compound 1a (ENDF1) 10 μM, compound 1b (ENDF3) 10 μM, compound 3a (ENDF2) 10 μM, or ENDF4 10 μM. Cells were fixed as described in Example 18. Immunostaining was performed using GAP-43 1:500 (AbD Serotec, Oxford, UK).

[1] = system: chicken dorsal root ganglion neurons; test: neurite outgrowth in primary chicken dorsal root ganglion neurons; format: cell-based; settings: E8 and E15 DRG neurons, 12 to 24 hours; compound 1a 10 μM, NGF 20 ng/ml; GAP-43 staining
Method: Dorsal root ganglion neurons comprise of an axon with two branches and are a good model for neuronal differentiation. Embryonic day 8 and 15 chicken dorsal root ganglions were examined for immunochemical staining with GAP43 after incubation with NGF 20 ng/ml and compound 1a (ENDF1) 10 μM to analyze whether compound 1a alone or in combination with the nerve growth factor enhances neurite outgrowth and branching.
Embryonic day (E) 8 and E15 chicken Dorsal Root Ganglions (DRGs) were prepared as described in: Aigner, 1993; Aigner, 1995. Briefly, foetuses were taken out of the egg, decapitated and the DRGs were targeted from the ventral side. The 10 lumbar region DRGs per foetus were dissected, and a total of 100 DRGs were collected in 10 ml DPBS in a 15 ml Falcon tube. DRGs were centrifuged 120×g for 3 min and then enzymatically treated with 1 ml trypsin 0.5 mg/ml+EDTA 0.22 mg/ml (PAA, Pasching, Austria) for 15 min. Then, 9 ml of DMEM 10% FCS were added to inactivate the trypsin and DRGs were centrifuged 120×g for 5 min. DRGs were resuspended and washed with 5 ml of DMEM 10% FCS, pipetted up and down to dissociate them, centrifuged, resuspended in 5 ml of DMEM 10% FCS and transferred into a 60 mm diameter cell culture dish. […]

PC12 cells = test: PC12 cobalt-chloride stress test, LDH release; format: cell-based, rat; settings: CoCl2 300 μM, 24 hours; compounds 10 μM, NGF 100 ng/ml; FIG. 7B
Method: For the neuroprotection assay PC12 cells were stressed with cobalt chloride 300 μM for 24 hours and the activity of Caspase 3/7 and LDH release were measured. NGF 50 ng/ml was used as a positive control for Caspase 3/7 activity and NGF 100 ng/ml was used as a positive control for LDH release.
For the PC12-CoCl2-Assay PC12 cells were used (ATCC: CRL-1721 ™). These cells were growing in RPMI supplemented with 10% Horse Serum (heat inactivated) (Sigma Aldrich, Taufkirchen, Germany), 5% Fetal Bovine Serum (Lonza, Wuppertal, Germany), 2.5% Penicillin/Streptomycin and Glutamine (PAA, Pasching, Austria) as adherent cultures when the plates are coated with Poly-L-ornithine ([…] in water) for at least one hour at 37° C. For passaging PC12-cells were resuspended with Accutase (PAA, Pasching, Austria) for 10 minutes at 37° C. once a week.
For all experiments cells were plated (quadruplicates) on Poly-L-ornithine-coated 96-well plates at a density of 10^4 cells per well. For Caspase 3/7-measurement cells were seeded in a white 96-well-plate to detect luminescence. As positive-control for neuroprotection Nerve Growth Factor (NGF) (50 ng/ml and 100 ng/ml) was used. To induce hypoxia CoCl2 (300 μM) was added to the cells after 20-24 hours. The control-treatment was compound 1a (ENDF1), compound 1b (ENDF3), compound 3a (ENDF2), ENDF4 or Osajin in the concentrations 1 μM and 10 μM in proliferation-media without CoCl2.
For LDH-release cells were centrifuged at 1050 rpm for 5 minutes. After 24 hours of stimulation, the supernatant was mixed in an equal amount with LDH-substrate and incubated in the dark for 30 minutes. Afterwards stop solution was added and absorbance was measured at 490 nm, the blank-values are subtracted.

Row | Structure (SMILES) | neurite length and branching (Neuro-2a cells) | neurite extension [1] | protection from CoCl2 induced LDH release (cell death) (PC12 cells)
1 | COc1cc2c(c(O)c1C(=O)/C=C/c1ccc(O)cc1)C=CC(C)(C)O2 [Compound 1a, (E)-1-(5-hydroxy-7-methoxy-2,2-dimethyl-2H-chromen-6-yl)-3-(4-hydroxyphenyl)prop-2-en-1-one] | longer growth of neurites as well as more elaborated branches; also recorded: strong and significant increase on neurite length and more elaborated branches | strongly promote neurite extension; also recorded: promotes neurite extension to a similar degree as NGF; also recorded: almost in the range of NGF | partially protected; also recorded: slightly decrease the LDH release
2 | COc1cc2c(c(O)c1C(=O)/C=C/c1ccc(O)cc1)CCC(C)(C)O2 [Compound 1b, (E)-1-(5-hydroxy-7-methoxy-2,2-dimethylchroman-6-yl)-3-(4-hydroxyphenyl)prop-2-en-1-one] | longer growth of neurites as well as more elaborated branches; also recorded: strong and significant increase on neurite length and more elaborated branches | – | partially protected; also recorded: slightly decrease the LDH release
